Experimental findings from PubChem BioAssay AID248 (DTP/NCI, 2004) are described below.

This test concerns L1210 leukemia ip in BDF1 mice, survival T/C. The test is described as follows: NCI In Vivo Anticancer Drug Screen. Data for tumor model L1210 Leukemia (intraperitoneal) in B6D2F1 (BDF1) mice. The following applies: endpoint: mean survival time, higher = longer survival. The gist of the method:
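Survival endpoint. Drug-treated group vs vehicle group, expressed as T divided by C. Tumor passaged by transplantation.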

Setting [1] is: dose: 100.0 mg/kg/injection, schedule: Q01DX001 (ip), vehicle: saline.
Where [2] appears, read: dose: 200.0 mg/kg/injection, schedule: Q01DX001 (ip), vehicle: saline.
[3] abbreviates: dose: 100.0 mg/kg/injection, schedule: Q01DX009 (ip), vehicle: saline with Tween-80.
The mark [4] stands for this setting: dose: 100.0 mg/kg/injection, schedule: Q01DX009 (ip), vehicle: Klucel (hydroxypropylcellulose) (HPC).
The mark [5] stands for this setting: dose: 100.0 mg/kg/injection, schedule: Q04DX003 (ip), vehicle: Klucel (hydroxypropylcellulose) (HPC).
Setting [6] is: dose: 200.0 mg/kg/injection, schedule: Q04DX003 (ip), vehicle: Klucel (hydroxypropylcellulose) (HPC).
Where [7] appears, read: dose: 400.0 mg/kg/injection, schedule: Q04DX003 (ip), vehicle: Klucel (hydroxypropylcellulose) (HPC).
Where [8] appears, read: dose: 100.0 mg/kg/injection, schedule: Q01DX001 (ip), vehicle: Klucel (hydroxypropylcellulose) (HPC).
[9] abbreviates: dose: 200.0 mg/kg/injection, schedule: Q01DX001 (ip), vehicle: Klucel (hydroxypropylcellulose) (HPC).
The mark [10] stands for this setting: dose: 400.0 mg/kg/injection, schedule: Q01DX001 (ip), vehicle: Klucel (hydroxypropylcellulose) (HPC).
Setting [11] is: dose: 200.0 mg/kg/injection, schedule: Q01DX009 (ip), vehicle: Klucel (hydroxypropylcellulose) (HPC).
[12] abbreviates: dose: 400.0 mg/kg/injection, schedule: Q01DX009 (ip), vehicle: Klucel (hydroxypropylcellulose) (HPC).
Where [13] appears, read: dose: 100.0 mg/kg/injection, schedule: Q01DX009 (ip), vehicle: saline.
Where [14] appears, read: dose: 100.0 mg/kg/injection, schedule: Q04DX003 (ip), vehicle: saline with Tween-80.
Where [15] appears, read: dose: 200.0 mg/kg/injection, schedule: Q01DX009 (ip), vehicle: saline with Tween-80.
The mark [16] stands for this setting: dose: 200.0 mg/kg/injection, schedule: Q04DX003 (ip), vehicle: saline with Tween-80.
Setting [17] is: dose: 400.0 mg/kg/injection, schedule: Q01DX009 (ip), vehicle: saline with Tween-80.

Structures are written as SMILES. Several values for one entry are separate records, joined by “and”; a condition that tells them apart may be missing. Identical values can stand only once. Inconclusive results and toxic doses are left out.

Regarding `CCCC(CC(=O)O)OC` (configuration not stated), the T/C runs as follows: under setting [1], 103 % of control; under setting [2], 110 % of control; (dose: 400.0 mg/kg/injection, schedule: Q01DX001 (ip), vehicle: saline) 110 % of control.
For the molecule `O=C(CNC(=O)c1ccccc1)N/N=C/c1cccc([N+](=O)[O-])c1`, the T/C was 95 % of control (dose: 25.0 mg/kg/injection, schedule: Q01DX009 (ip), vehicle: saline with Tween-80); 90 % of control (dose: 50.0 mg/kg/injection, schedule: Q01DX009 (ip), vehicle: saline with Tween-80); 88 % of control under setting [3].
For the molecule `Nc1ccn(CCCCc2ccccc2)c(=O)n1`, the T/C is 93 % of control (dose: 100.0 mg/kg/injection, schedule: Q01DX001 (ip), vehicle: gum acacia); 95 % of control (dose: 200.0 mg/kg/injection, schedule: Q01DX001 (ip), vehicle: gum acacia); 91 % of control (dose: 400.0 mg/kg/injection, schedule: Q01DX001 (ip), vehicle: gum acacia).
As to `O=C(Nc1ccc(C(=O)O)cc1)Nc1ccccc1F`, the T/C is 93 % of control (dose: 50.0 mg/kg/injection, schedule: Q01DX009 (ip), vehicle: Klucel (hydroxypropylcellulose) (HPC)) and 104 % of control under setting [4].
With `O=[N+]([O-])c1ccc(Oc2c(Cl)cccc2Cl)cc1`, the T/C under setting [5] was 96 % of control, the T/C under setting [6] was 95 % of control and the T/C under setting [7] is 96 % of control.
Regarding `Cc1cccc(Nc2cc(Cl)nc(N)n2)c1`, the T/C was 97 % of control (dose: 100.0 mg/kg/injection, schedule: Q01DX Z (ip), vehicle: methylcellulose (MC)) and 89 % of control (dose: 200.0 mg/kg/injection, schedule: Q01DX Z (ip), vehicle: methylcellulose (MC)).
For `COC(=O)N1C(c2ccc(OC)cc2)CS1(=O)=O` (configuration not stated), the T/C runs as follows: (dose: 75.0 mg/kg/injection, schedule: Q04DX003 (ip), vehicle: Klucel (hydroxypropylcellulose) (HPC)) 101 % of control; under setting [8], 97 % of control; (dose: 150.0 mg/kg/injection, schedule: Q04DX003 (ip), vehicle: Klucel (hydroxypropylcellulose) (HPC)) 98 % of control; under setting [9], 102 % of control; (dose: 300.0 mg/kg/injection, schedule: Q04DX003 (ip), vehicle: Klucel (hydroxypropylcellulose) (HPC)) 116 % of control; under setting [10], 97 % of control.
On to `CCCNCCC[P+](c1ccccc1)(c1ccccc1)c1ccccc1`, for which the T/C reads like this: (dose: 25.0 mg/kg/injection, schedule: Q04DX002 (ip), vehicle: saline) 102 % of control; (dose: 50.0 mg/kg/injection, schedule: Q04DX002 (ip), vehicle: saline) 98 % of control; (dose: 100.0 mg/kg/injection, schedule: Q04DX002 (ip), vehicle: saline) 98 % of control and 91 % of control.
For `O=C(Nc1cccc(Cl)c1Cl)N(Cc1ccccc1)Cc1ccccc1`, the T/C was 108 % of control under setting [4], 97 % of control under setting [11] and 101 % of control under setting [12].
With `C1CC[N+]2=C(C1)OCCC2`, the T/C is, setting by setting: (dose: 30.0 mg/kg/injection, schedule: Q01DX009 (ip), vehicle: saline) 93 % of control; (dose: 44.0 mg/kg/injection, schedule: Q01DX009 (ip), vehicle: saline) 100 % of control; (dose: 60.0 mg/kg/injection, schedule: Q01DX009 (ip), vehicle: saline) 106 % of control; (dose: 66.0 mg/kg/injection, schedule: Q01DX009 (ip), vehicle: saline) 103 % of control; under setting [13], 102 % of control and 103 % of control; (dose: 100.0 mg/kg/injection, schedule: Q04DX003 (ip), vehicle: saline) 101 % of control. Besides, the T/C runs as follows: (dose: 150.0 mg/kg/injection, schedule: Q01DX009 (ip), vehicle: saline) 100 % of control and 104 % of control; (dose: 200.0 mg/kg/injection, schedule: Q04DX003 (ip), vehicle: saline) 101 % of control; (dose: 400.0 mg/kg/injection, schedule: Q04DX003 (ip), vehicle: saline) 91 % of control.
For the molecule `Nc1ncnc(N)c1NC(=O)c1ccc(Cl)cc1`, the T/C is 107 % of control (dose: 25.0 mg/kg/injection, schedule: Q01DX001 (ip), vehicle: saline with Tween-80); 104 % of control (dose: 50.0 mg/kg/injection, schedule: Q01DX001 (ip), vehicle: saline with Tween-80); 120 % of control (dose: 100.0 mg/kg/injection, schedule: Q01DX001 (ip), vehicle: saline with Tween-80).
With `Cc1ccc(S(=O)(=O)N/N=C/c2c(O)ccc3ccccc23)cc1`, the T/C is, setting by setting: under setting [3], 87 % of control; under setting [14], 96 % of control; under setting [15], 89 % of control; under setting [16], 94 % of control; under setting [17], 91 % of control; (dose: 400.0 mg/kg/injection, schedule: Q04DX003 (ip), vehicle: saline with Tween-80) 94 % of control.
Turning to `CCSC(=N)N=Nc1ccc(O)cc1`, the T/C reads like this: (dose: 50.0 mg/kg/injection, schedule: Q01DX001 (ip), vehicle: saline) 104 % of control; under setting [1], 98 % of control; under setting [2], 102 % of control.
With `CCN(CC)c1ccc(/C=C/C(=O)c2ccc(N(CC)CC)cc2)cc1`, the T/C by setting is: under setting [4], 94 % of control; under setting [11], 97 % of control; under setting [12], 97 % of control.
Consider `CCN(CCCl)CCNc1c2ccccc2nc2c1ccc1ccccc12`, for which the T/C is 116 % of control (dose: 1.25 mg/kg/injection, schedule: Q01DX005 (ip), vehicle: saline); 115 % of control (dose: 2.5 mg/kg/injection, schedule: Q01DX005 (ip), vehicle: saline); 107 % of control (dose: 5.0 mg/kg/injection, schedule: Q01DX005 (ip), vehicle: saline).
On to `CN1CN(c2ccccc2)C2(CCN(CCc3cc4ccccc4o3)CC2)C1=O`, for which the T/C under setting [8] was 96 % of control, the T/C under setting [9] was 95 % of control and the T/C under setting [10] is 101 % of control.
Turning to `N#CCCOc1ccc(Cl)cc1`, the T/C under setting [14] is 96 % of control and the T/C under setting [16] is 99 % of control.
For the molecule `NNCC(F)(F)C(F)(F)C(F)(F)C(F)(F)C(F)(F)C(F)(F)C(F)(F)C(F)F`, the T/C runs as follows: (dose: 100.0 mg/kg/injection, schedule: Q01DX009 (ip), vehicle: DMSO) 91 % of control; (dose: 100.0 mg/kg/injection, schedule: Q04DX003 (ip), vehicle: DMSO) 89 % of control; (dose: 200.0 mg/kg/injection, schedule: Q01DX009 (ip), vehicle: DMSO) 92 % of control; (dose: 200.0 mg/kg/injection, schedule: Q04DX003 (ip), vehicle: DMSO) 88 % of control; (dose: 400.0 mg/kg/injection, schedule: Q04DX003 (ip), vehicle: DMSO) 94 % of control.
Take `O=C(Nc1ccc(Cl)cc1)Oc1ccc(C2CCCCC2)cc1`: the T/C (dose: 100.0 mg/kg/injection, schedule: Q04DX002 (ip), vehicle: Klucel (hydroxypropylcellulose) (HPC)) is 100 % of control; the T/C (dose: 200.0 mg/kg/injection, schedule: Q04DX002 (ip), vehicle: Klucel (hydroxypropylcellulose) (HPC)) was 107 % of control; the T/C (dose: 400.0 mg/kg/injection, schedule: Q04DX002 (ip), vehicle: Klucel (hydroxypropylcellulose) (HPC)) is 110 % of control.
As to `O=C1CCCCCCCCC1O` (configuration not stated), the T/C reads like this: under setting [3], 120 % of control; under setting [13], 333 % of control; under setting [5], 103 % of control; under setting [15], 101 % of control; (dose: 200.0 mg/kg/injection, schedule: Q01DX009 (ip), vehicle: saline) 114 % of control; under setting [6], 115 % of control. The T/C runs as follows: under setting [17], 97 % of control; (dose: 400.0 mg/kg/injection, schedule: Q01DX009 (ip), vehicle: saline) 105 % of control; under setting [7], 108 % of control.
